Data published in patent publication US20080145313A1, “Compositions and Methods for the Treatment and Prevention of Neoplastic Disorders” (Genesis Research & Development Corporation Limited, priority 2006, published 2008).

Tests used:
SK-Mel-5 cells = assay: Growth inhibition of siRNA-transfected SK-Mel-5 cells, SYBR Green I DNA content; type: cell-based, human; details: 10 nM siRNA; standardized against control siRNA
Description: A549 cells (human lung cancer cell line; ATCC No. CCL-185), SK-MeI-5 cells (human melanoma cell line; ATCC No. HTB-70), MCF-7 cells (human adenocarcinoma cell line; ATCC No. HTB-22), HCT-116 cells (colorectal carcinoma; ATCC CCL-247) and HCT-116 p53 null cells (derived from ATCC No. CCL-247; Bunz et al., Science 282:1497-1501, 1998) were cultured in RPMI 1640 medium with 10% v/v heat-inactivated fetal calf serum (FCS). Cells were seeded at a density of 5×10^4 cells/cm^2 in multi-well tissue culture plates. Sequences of Stealth™ siRNA duplexes (Invitrogen) targeting human ribonucleotide reductase subunit 1 (SEQ ID NO: 22) and subunit 2 (SEQ ID NO; 38) are given in SEQ ID NO: 4830-4832 (DNA), and SEQ ID NO: 5136-5138 (RNA) for RRM1, and SEQ ID NO: 5306-5308 (DNA), and SEQ ID NO: 5303-5305 (RNA) for RRM2. siRNAs were transfected at different concentrations into cells using Lipofectamine™ RNAiMAX transfection reagent (Invitrogen). Non-specific siRNA (SEQ ID NO: 4804 and 4805 (DNA), and SEQ ID NO: 5301 and 5302 (RNA)) were used as controls. The cellular DNA content was measured using a SYBR Green I-based fluorometric assay at 24, 48, 72 and 96 hours after transfection (120 hours for the MCF-7 cells), as follows. At the indicated time points following reverse transfection, cells were harvested and frozen at −80° C. overnight. Cells were thawed and cell lysis buffer (phosphate-buffered saline (PBS) containing 1% Triton X-100, pH 7) and SYBR Green I (1:10^5 V/V; Invitrogen) was added to the wells and incubated overnight in the dark at 4° C.
The following day, cell lysates were mixed thoroughly, and DNA fluorescence was measured with a Wallac Victor^2 plate reader (Turku, Finland) set at an excitation frequency of 485 nm and measuring emission at 535 nm.
siRNA-mediated inhibition of cancer cell growth using siRNA targeting the YBX1 gene (SEQ ID NO: 92) was determined as follows. SK-MeI-5 cells were cultured in RPMI 1640 medium with 10% v/v heat-inactivated fetal calf serum. Cells were cultured as described above and reverse transfected with 0.1, 1.0, 10 and 40 nM (final concentration) of a pool of YBX1-targeting siRNAs (SEQ ID NO: 4982 and 4983 (DNA), and SEQ ID NO: 5277 and 5278 (RNA); referred to as 994 and 995 in FIG. 19) or a non-specific control (SEQ ID NO: 4804 (DNA), and SEQ ID NO: 5301 (RNA); referred to as Stealth 81 ctrl in FIG. 19), and cell growth determined after 120 h by measuring DNA fluorescence with a Wallac Victor^2 plate reader (Turku, Finland) set at an excitation frequency of 485 nm and measuring emission at 535 nm. Growth inhibition by the siRNA pool was standardized against the inhibition obtained with the control siRNAs.
siRNA-mediated RNAi was also determined on a panel of different cell lines. A549, SK-MeI-5, wt HCT-116, HCT-116−/−p53 and MCF-7 cells were transfected with 10 nM siRNAs targeting YBX-1 and growth inhibition determined as described above. The YBX1 siRNAs are given in SEQ ID NO: 4981 to 4985 (DNA) and SEQ ID NO: 5276-5280 (RNA). A non-specific siRNA (SEQ ID NO: 4804 (DNA) and SEQ ID NO: 5301 (RNA)) was used as control. Growth inhibition by the siRNAs, given in Table 14, was standardized against the inhibition obtained with the control siRNA.

YBX1 mRNA = YBX1 mRNA level by quantitative RT-PCR in A549 cells; type: cell-based, human; details: 24 h post-transfection
Description: A549 cells were transfected with 10 nM RRM1-1 (SEQ ID NO: 4830 (DNA), and SEQ ID NO: 5136 (RNA); light grey bar in FIG. 12A), RRM1-2 (SEQ ID NO: 4831 (DNA), and SEQ ID NO: 5137 (RNA); dark grey bar in FIG. 12A), RRM1-3 (SEQ ID NO: 4832 (DNA), and SEQ ID NO: 5138 (RNA); black bar in FIG. 12A) or control siRNA (SEQ ID NO: 4804 (DNA), and SEQ ID NO: 5301 (RNA)) (open bar in FIG. 12A) and relative mRNA levels quantified 24 h post-transfection. RNA was purified from cells using Trizol® extraction as per the manufacturer's protocol (Invitrogen). cDNA was prepared by digesting approximately 200 ng purified RNA with DNAse I (Invitrogen) for 15 minutes at room temperature, followed by 15 minutes at 65° C. in the presence of 25 mM EDTA. 30 ng random primers were added and incubated for 10 minutes at room temperature, 1 minute on ice; Superscript III polymerase (Invitrogen) was added in presence of 5 nM DTT (Sigma, St Louis, Mo.) and 1 mM deoxyribonucleotides (Invitrogen), and the reaction incubated at 25° C. for 5 minutes, followed by an hour at 55° C. cDNA was diluted 1:3 in 10 mM Tris pH 7.0, and quantitative RT-PCR carried out on an ABI Prism 7900HT (Applied Biosciences, Inc., Foster City, Calif.) using FastStart TaqMan SYBRGreen (Roche, Basel, Switzerland) and specific primers at 360 nM for RRM1 and RRM2 and the housekeeping genes HPRT and Lamin. Primer sequence pairs used for RRM1, RRM2, HPRT and lamin are given in SEQ ID NO: 4881 and 4882; 4883 and 4884; 4885 and 4886; 4887 and 4888 respectively.
A549 cells were transfected with 0.1, 1.0 and 10 nM siRNA (given in SEQ ID NO: 4981 to 4985 (DNA), and SEQ ID NO: 5276-5280 (RNA)) and the relative mRNA levels quantified 24 h post-transfection as described in Example 8.

Row | Substance | growth inhibition, SK-Mel-5 cells (SK-Mel-5 cells) | YBX1-specific reduction of mRNA levels in A549 cells (YBX1 mRNA; 1 nM siRNA) | YBX1-specific reduction of mRNA levels in A549 cells (YBX1 mRNA; 10 nM siRNA) | YBX1-specific reduction of mRNA levels in A549 cells (YBX1 mRNA; 0.1 nM siRNA)
1 | SEQ ID NO: 4982: siRNA targeting YBX1 (chain 1 TTTGCTGGTAATTGCGTGGAGGACC; chain 2 UUUGCUGGUAAUUGCGUGGAGGACC; chemistry not given here; one strand in two spellings) | +++ (At least 70% inhibition) | +++ (At least 70% inhibition) | +++ (At least 70% inhibition) | 
2 | SEQ ID NO: 4983: siRNA targeting YBX1 (chain 1 TACTGTGGTCGACGCCCATAGGGTC; chain 2 UACUGUGGUCGACGCCCAUAGGGUC; chemistry not given here; one strand in two spellings) | ++ (At least 50% inhibition) |  | ++ (At least 50% inhibition) | 
3 | SEQ ID NO: 4984: siRNA targeting YBX1 (chain 1 CAAGGTAGACCAGTGAGGCAGAATA; chain 2 CAAGGUAGACCAGUGAGGCAGAAUA; chemistry not given here; one strand in two spellings) | +++ (At least 70% inhibition) | +++ (At least 70% inhibition) | +++ (At least 70% inhibition) | +++ (At least 70% inhibition)
4 | SEQ ID NO: 4985: siRNA targeting YBX1 (chain 1 CAGCCTAGAGAGGACGGCAATGAAG; chain 2 CAGCCUAGAGAGGACGGCAAUGAAG; chemistry not given here; one strand in two spellings) | ++ (At least 50% inhibition) | ++ (At least 50% inhibition) | ++ (At least 50% inhibition) | + (At least 20% inhibition)
